Results taken from article PMC5566973 (Frontiers in Pharmacology, 2017).

Experiments:
[1] = system: PEPT1; assay: in vitro; conditions: human
Method: (§1) Caco-2, MDCK and MDCK-MRP2 cells were donated by Prof. Yan Xie and Yueming Ma from Shanghai University of Traditional Chinese Medicine. The cells were grown in culture dishes (Corning® Costar, Cambridge, MA, USA) using DMEM supplemented with 10% FBS, 1% NEAA and 1% penicillin-streptomycin solution. The cells were cultured in 5% CO2 and […] with 90% relative humidity at 37°C. The medium was replaced every other day during incubation. The cells were passaged every 3–4 days between 70 and 80% confluence at a 1:5 split ratio using 0.25% trypsin-EDTA. For the transport experiments, the cells from passages between 30 and 45 were seeded at 1 × 10^5 cells/cm^2 onto permeable polycarbonate inserts (0.45 μm pore size, seeding surface of 0.6 cm^2, Millipore, MA, USA) in 24-well plastic plates. The media in the culture plates were changed every other day for the first week after seeding and were replaced daily afterward. […] The cells were used for the transport experiments 21–28 (Caco-2) or 5–7 (MDCK and MDCK-MRP2) days after seeding, and only monolayers with a TEER-value above 420 Ω cm^2 were used during the studies.
(§2) The apical (AP) and basolateral (BL) sides are typical of polarized Caco-2, MDCK and MDCK-MRP2 epithelial cells. Before the experiments, the polarized cell monolayers were washed twice with warm HBSS solution and subsequently preincubated (37°C, 30 min). Afterward, HBSS solution on both sides of the cell monolayers was removed using a mini desktop vacuum pump. […] The final DMSO concentration in the HBSS or drug mixture was below 0.5%. The monolayers were incubated at 37°C, and 100 μL samples were taken at 30, 60, 90, and 120 min from the acceptor compartment and immediately replaced with the same volume of prewarmed fresh blank HBSS. TEER measurements for assessing the membrane integrity took place before and after the experiments.
(§3) The apparent permeability coefficients (Papp) and ER were calculated as Equations (2) and (3): […]
(§4) where dQ/dt is the steady-state flux, A is the membrane surface area, and C0 is the initial drug concentration in the donor compartment. PappBA is the Papp-value measured in BL to AP direction and PappAB is the Papp-value measured in AP to BL direction. It indicated the involvement of an active transport process when the ER-value is above 1.5 (Hubatsch et al., [2007]).

[2] = in vitro
Method: as §1, §2, §3, §4

[3] = system: BCRP; assay: in vitro; conditions: human; for efflux ratio: Caco-2, ER, Caco-2, 2 μM
Method: as §1, §2, §3, §4

[4] = system: ATP (adenosine triphosphate); assay: in vitro; conditions: human
Method: as §1, §2, §3, §4

[5] = system: MRP2; assay: in vitro; conditions: human; for efflux ratio: Caco-2, ER, Caco-2, 2 μM
Method: as §1, §2, §3, §4

[6] = system: MDR1; assay: in vitro; conditions: human, Caco-2, 2 μM; for Papp B→A: Caco-2, PappBA; for efflux ratio: Caco-2, ER
Method: as §1, §2, §3, §4

[7] = system: MDCK cell monolayers; assay: in vitro
Method: as §1, §2, §3, §4

[8] = system: Na+/K+-ATPase; assay: in vitro; conditions: human; for Papp B→A: Caco-2, PappBA
Method: as §1, §2, §3, §4

[9] = system: OATs; assay: in vitro; conditions: human, Caco-2, 2 μM, + Cimetidine 0.05 mM (OATs)
Method: as §1, §2, §3, §4

[10] = system: OATPs; assay: in vitro; conditions: human
Method: as §1, §2, §3, §4

[11] = Metabolic stability in human liver microsomes; conditions: for residual percentage: human liver microsomes 0.5 mg protein/mL, 2 μM, after incubation; for half-life at 2 μM / microsomal CLint at 2 μM: human, liver microsomes
[12] = dog, MDCK, PappAB, initial concentration 1 μM
[13] = dog, MDCK, PappAB, initial concentration 2 μM
[14] = dog, MDCK, PappAB, initial concentration 5 μM
[15] = dog, MDCK, PappBA, initial concentration 1 μM
[16] = dog, MDCK, PappBA, initial concentration 2 μM
[17] = dog, MDCK, PappBA, initial concentration 5 μM
[18] = dog, MDCK, pH 5.5, PappAB, 2 μM, pH 5.5
[19] = dog, MDCK, pH 5.5, PappBA, 2 μM, pH 5.5
[20] = human, Caco-2, PappAB, Caco-2, initial concentration 1 μM
[21] = human, Caco-2, PappAB, Caco-2, initial concentration 5 μM
[22] = human, Caco-2, PappBA, Caco-2, 2 μM, 4°C
[23] = human, Caco-2, PappBA, Caco-2, initial concentration 1 μM
[24] = human, Caco-2, PappBA, Caco-2, initial concentration 2 μM
[25] = human, Caco-2, PappBA, Caco-2, initial concentration 5 μM
[26] = human, Caco-2, pH 5.5, PappAB, Caco-2, 2 μM, pH 5.5
[27] = human, Caco-2, pH 5.5, PappBA, Caco-2, 2 μM, pH 5.5
[28] = 2 μM, Control (pH 7.4, 37°C, without EDTA)
[29] = Caco-2, 2 μM, + Sodium vanadate 0.05 mM (Na^+)
[30] = 2 μM, with EDTA 5 mM, listed as harmaline

COc1ccc2c(c1)[nH]c1c(C)nccc12 [Harmine]
Papp A→B ([1]; Caco-2, PappAB): 18.3 ± 1.28 ×10⁻⁶ cm/s
Papp A→B [2, 12]: 3.7 ± 0.14 ×10⁻⁶ cm/s
Papp A→B [2, 13]: 4.6 ± 0.25 ×10⁻⁶ cm/s
Papp A→B [2, 14]: 7.11 ± 0.89 ×10⁻⁶ cm/s
Papp B→A [2, 15]: 5.81 ± 0.19 ×10⁻⁶ cm/s
Papp B→A [2, 16]: 7.32 ± 0.19 ×10⁻⁶ cm/s
Papp B→A [2, 17]: 11.6 ± 0.15 ×10⁻⁶ cm/s
Papp A→B [2, 18]: 2.24 ± 0.29 ×10⁻⁶ cm/s
Papp B→A [2, 19]: 3.42 ± 0.48 ×10⁻⁶ cm/s
Papp A→B ([2]; human, Caco-2, PappAB, Caco-2, 2 μM, 4°C): 1.58 ± 0.57 ×10⁻⁶ cm/s
Papp A→B [2, 20]: 15.1 ± 0.73 ×10⁻⁶ cm/s
Papp A→B ([2]; human, Caco-2, PappAB, Caco-2, initial concentration 2 μM): 18.8 ± 1.26 ×10⁻⁶ cm/s
Papp A→B [2, 21]: 31.1 ± 1.42 ×10⁻⁶ cm/s
Papp B→A [2, 22]: 2.41 ± 0.85 ×10⁻⁶ cm/s
Papp B→A [2, 23]: 22.8 ± 0.25 ×10⁻⁶ cm/s
Papp B→A [2, 24]: 29.3 ± 1.21 ×10⁻⁶ cm/s
Papp B→A [2, 25]: 48.3 ± 2.81 ×10⁻⁶ cm/s
Papp A→B [2, 26]: 5.27 ± 0.29 ×10⁻⁶ cm/s
Papp B→A [2, 27]: 4.17 ± 1.03 ×10⁻⁶ cm/s
Papp A→B ([3]; Caco-2, PappAB): 19 ± 3.67 ×10⁻⁶ cm/s
Papp A→B ([4]; Caco-2, PappAB): 14.1 ± 0.39 ×10⁻⁶ cm/s
Papp A→B ([5]; Caco-2, PappAB): 29.9 ± 2.14 ×10⁻⁶ cm/s
Papp B→A ([6]; + Quinidine 0.1 mM (MDR1)): 29 ± 3.96 ×10⁻⁶ cm/s
Papp B→A ([6]; + Verapamil 0.1 mM (MDR1)): 28.5 ± 3.77 ×10⁻⁶ cm/s
PappAB ([7]; 2 μM, 4°C): 1.85 ± 0.55^*** 1 × 10^−6 cm/s
PappAB [7, 28]: 4.60 ± 0.25 1 × 10^−6 cm/s
PappAB ([7]; 2 μM, with EDTA 5 mM): 7.47 ± 1.31^* 1 × 10^−6 cm/s
PappBA ([7]; 2 μM, with EDTA 5 mM): 8.98 ± 0.90 1 × 10^−6 cm/s
PappAB ([7]; 2 μM, with EDTA 5 mM, listed as harmine): 7.47 ± 1.31 1 × 10^−6 cm/s
PappBA ([7]; dog, pH 7.4): 7.32 ± 0.19 1 × 10^−6 cm/s
Papp A→B ([8]; Caco-2, PappAB): 13.1 ± 0.93 ×10⁻⁶ cm/s
Papp B→A [8, 29]: 26.2 ± 1.78 ×10⁻⁶ cm/s
Papp B→A ([9]; Caco-2, PappBA): 27.6 ± 1.54 ×10⁻⁶ cm/s
Papp A→B ([10]; Caco-2, PappAB): 14.6 ± 1.31 ×10⁻⁶ cm/s
residual percentage [11]: 54.25%
half-life at 2 μM [11]: 1.65 h
microsomal CLint at 2 μM [11]: 14 µL/min/mg

COc1ccc2c3c([nH]c2c1)C(C)=NCC3 [Harmaline]
efflux ratio ([1]; Caco-2, ER, Caco-2, 2 μM, + Gly-Sar 10 mM (PEPT1)): 0.95
efflux ratio ([2]; dog, MDCK, ER, 2 μM, 4°C): 1.23
efflux ratio ([2]; dog, MDCK, ER, 2 μM, with EDTA 5 mM): 0.9
efflux ratio ([2]; dog, MDCK, ER, initial concentration 1 μM): 1.23
efflux ratio ([2]; dog, MDCK, ER, initial concentration 2 μM): 1.03
efflux ratio ([2]; dog, MDCK, ER, initial concentration 5 μM): 1.16
Papp A→B [2, 12]: 15.8 ± 1.76 ×10⁻⁶ cm/s
Papp A→B [2, 13]: 20.4 ± 1.82 ×10⁻⁶ cm/s
Papp A→B [2, 14]: 21.2 ± 1.32 ×10⁻⁶ cm/s
Papp B→A [2, 15]: 19.5 ± 2.25 ×10⁻⁶ cm/s
Papp B→A [2, 16]: 21 ± 2.11 ×10⁻⁶ cm/s
Papp B→A [2, 17]: 24.5 ± 2.54 ×10⁻⁶ cm/s
efflux ratio ([2]; dog, MDCK, pH 5.5, ER, 2 μM, pH 5.5): 1.18
Papp A→B [2, 18]: 13 ± 2.54 ×10⁻⁶ cm/s
Papp B→A [2, 19]: 15.4 ± 0.91 ×10⁻⁶ cm/s
efflux ratio ([2]; dog, MDCK, pH 7.4, ER, 2 μM, Control (pH 7.4, 37°C, without EDTA)): 1.03
efflux ratio ([2]; human, Caco-2, ER, Caco-2, 2 μM, 4°C): 1.15
efflux ratio ([2]; human, Caco-2, ER, Caco-2, 2 μM, Control (no inhibitor or substrate)): 0.95
efflux ratio ([2]; human, Caco-2, ER, Caco-2, 2 μM, with EDTA 5 mM): 1.12
efflux ratio ([2]; human, Caco-2, ER, Caco-2, initial concentration 1 μM): 0.93
efflux ratio ([2]; human, Caco-2, ER, Caco-2, initial concentration 2 μM): 0.95
efflux ratio ([2]; human, Caco-2, ER, Caco-2, initial concentration 5 μM): 1.03
Papp A→B [2, 20]: 27.4 ± 1.44 ×10⁻⁶ cm/s
Papp A→B [2, 21]: 30.1 ± 3.01 ×10⁻⁶ cm/s
Papp B→A [2, 22]: 8.71 ± 1.83 ×10⁻⁶ cm/s
Papp B→A [2, 23]: 25.6 ± 1.95 ×10⁻⁶ cm/s
Papp B→A [2, 24]: 26.4 ± 0.49 ×10⁻⁶ cm/s
Papp B→A [2, 25]: 31 ± 1.4 ×10⁻⁶ cm/s
efflux ratio ([2]; human, Caco-2, pH 5.5, ER, Caco-2, 2 μM, pH 5.5): 0.88
Papp A→B [2, 26]: 7.6 ± 0.74 ×10⁻⁶ cm/s
Papp B→A [2, 27]: 6.72 ± 0.76 ×10⁻⁶ cm/s
efflux ratio ([2]; human, Caco-2, pH 7.4, ER, Caco-2, 2 μM, Control (pH 7.4, 37°C, without EDTA)): 0.95
efflux ratio ([3]; + Apigenin 0.025 mM (BCRP)): 0.94
efflux ratio ([3]; + Ko143 0.01 mM (BCRP)): 0.93
efflux ratio ([4]; Caco-2, ER, Caco-2, 2 μM, + NaN3 10 mM (ATP)): 1.15
efflux ratio ([5]; + MK571 0.05 mM (MRP2)): 0.93
efflux ratio ([5]; + Probenecid 0.2 mM (MRP2)): 0.96
efflux ratio ([6]; + Quinidine 0.1 mM (MDR1)): 0.96
efflux ratio ([6]; + Verapamil 0.1 mM (MDR1)): 0.94
PappAB at 37°C relative to 4°C ([7]; 2 μM): 3.77 folds
PappAB at pH 7.4 relative to pH 5.5 ([7]; 2 μM): 1.56 folds
PappAB ([7]; 2 μM, 4°C): 5.40 ± 0.99^*** 1 × 10^−6 cm/s
PappBA ([7]; 2 μM, 4°C): 6.65 ± 0.64^*** 1 × 10^−6 cm/s
PappAB [7, 28]: 20.36 ± 1.82 1 × 10^−6 cm/s
PappBA [7, 28]: 21.03 ± 2.11 1 × 10^−6 cm/s
PappAB ([7]; 2 μM, with EDTA 5 mM): 29.43 ± 1.45^* 1 × 10^−6 cm/s
PappBA ([7]; 2 μM, with EDTA 5 mM): 26.34 ± 0.93^* 1 × 10^−6 cm/s
PappAB [7, 30]: 29.43 ± 1.45 1 × 10^−6 cm/s
PappBA [7, 30]: 26.34 ± 0.93 1 × 10^−6 cm/s
efflux ratio ([8]; Caco-2, ER, Caco-2, 2 μM, + Sodium vanadate 0.05 mM (Na^+)): 1.27
Papp B→A [8, 29]: 26.9 ± 1.26 ×10⁻⁶ cm/s
efflux ratio ([9]; Caco-2, ER): 0.97
efflux ratio ([10]; Caco-2, ER, Caco-2, 2 μM, + ES 0.05 mM (OATPs)): 1.12
residual percentage [11]: 64.16%
half-life at 2 μM [11]: 2.46 h
microsomal CLint at 2 μM [11]: 9.4 µL/min/mg
